What was measured:
Type in all cases: functional, cell-based
K562 = assay: Antiproliferative activity against human K562 cells after 48 hrs by MTT assay; conditions: K562, 48 h
SMMC-7721 = assay: Antiproliferative activity against human SMMC7721 cells after 48 hrs by MTT assay; conditions: SMMC-7721, 48 h
HepG2 = assay: Antiproliferative activity against human HepG2 cells after 48 hrs by MTT assay; conditions: HepG2, 48 h
HCT-116 = assay: Antiproliferative activity against human HCT116 cells after 48 hrs by MTT assay; conditions: HCT-116, 48 h

SMILES | IC50 (K562) | IC50 (SMMC-7721) | IC50 (HepG2) | IC50 (HCT-116)
O=C1c2cccc3cccc(c23)C(=O)N1CCCCNCCCCNCCCCNC1CCCCC1 | 30.7 µM | 14.3 µM | 37 µM | 14.2 µM
CCNCCCNCCCNCCCN1C(=O)c2cccc3cccc(c23)C1=O | 6.08 µM | 7.71 µM | 6.77 µM | 6.73 µM

Continued, values first:

IC50 (K562) | IC50 (SMMC-7721) | IC50 (HepG2) | IC50 (HCT-116) | SMILES
8.55 µM | 12 µM | 9.68 µM | 15.1 µM | O=C1c2cccc3cccc(c23)C(=O)N1CCCCNCCCCNCCCCNC1CC1
14.8 µM | 11 µM | 5.22 µM | 5.94 µM | CCNCCCNCCCCNCCCN1C(=O)c2cccc3cccc(c23)C1=O
8.09 µM | 6.38 µM | 6.59 µM | 7.21 µM | O=C1c2cccc3cccc(c23)C(=O)N1CCCNCCCCNCCCNC1CC1
17.2 µM | 29.9 µM | 25.4 µM | 18.3 µM | O=C1c2cccc3cccc(c23)C(=O)N1CCCNCCCCNCCCNC1CCCCC1

From ChEMBL document CHEMBL4138170, “Synthesis and biological evaluation of novel alkylated polyamine analogues as potential anticancer agents” (Eur J Med Chem, 2018)
